Test results taken from PubChem BioAssay AID586 (The Scripps Research Institute Molecular Screening Center, 2007).
pIC50: −log10 of the molar value. Calls of active or inactive are those of the source. The rule behind the calls is not given here.

System: antigen receptor-induced NF-kappaB activation reporter, cells
Assay: NF-kB reporter activation blockers, potency – cell-based, dose response (AID 586)

Row | pIC50 | IC50 | SMILES
1 | 6.51 |  | Cc1cc(C(=O)CN2C(=O)c3ccccc3S2(=O)=O)c(C)n1CC1CCCO1 (stereo not given)
2 | 5.32 |  | COc1cccc2c(C)c(C(=O)O)[nH]c12
3 |  | > 30000 nM (inactive) | O=C(O)[C@@H]1CCCC[C@@H]1C(=O)N1CCc2ccccc2C1CN1C(=O)c2ccccc2C1=O (stereo not given in full)
4 | 6.15 |  | COC(=O)C1=C(CN2CCCc3ccccc32)NC(=O)NC1c1ccc(F)cc1 (stereo not given)
5 | 6.09 |  | CCN(CC)c1ccc(-c2nn3c(-c4ccccc4OC)nnc3s2)cc1
6 | 5.07 |  | Cc1cccc2cc(CN(Cc3cccs3)C(c3nnnn3C3CCCC3)C(C)C)c(=O)[nH]c12 (stereo not given)
7 |  | > 30000 nM (inactive) | COc1ccc(-c2noc(CCCC(=O)O)n2)cc1
8 | 5.94 |  | Cc1oc(-c2ccccc2Cl)nc1CSCC(=O)N1CCCC1
9 |  | 17900 nM (inactive) | COc1ccccc1C(=O)N1CCN(c2cccc(Cl)c2)CC1
10 | 5.85 |  | c1ccc(-c2noc(-c3ccc4ccccc4c3)n2)nc1
11 | 5.53 |  | CCN1C(=O)c2cccc3c(S(=O)(=O)Nc4ccccn4)ccc1c23
12 | 6.72 |  | CCOc1ccc(OCc2cccc(C(=O)O)c2)cc1
13 |  | > 30000 nM (inactive) | Cc1ccc(-c2nsc3c(N4CCC(C(N)=O)CC4)ncnc23)cc1
14 | 5.17 |  | CC1=CC(C)(C)Nc2ccc(OC(=O)CN3C(=O)CCC3=O)cc21
15 |  | > 30000 nM (inactive) | CC(C)c1nnc(NC(=O)c2c(O)c3cccc4c3n(c2=O)CCC4)s1
16 | 5.41 |  | COc1ccc(C(=O)NC(=O)Nc2cc(C)ccn2)cc1
17 | 5.18 |  | COc1cc(C2C(C#N)=C(C)NC3=C2C(=O)c2ccccc23)cc(OC)c1OC (stereo not given)
18 | 5.79 |  | CCNC(=O)CCc1nc(-c2ccc(C(C)(C)C)cc2)no1
19 | 6.69 |  | CC1CCN(c2nc3ccc(C(=O)O)cc3s2)CC1
20 | 5.78 |  | COc1cc(CC(NC(C)=O)C(=O)NC2CCN(c3nc(C)cc(C)c3C#N)CC2)cc(OC)c1 (stereo not given)
21 |  | > 30000 nM (inactive) | CCNc1ccc(C(=O)OCC)cc1NC(=O)c1cccc(N(C)C)c1
22 |  | > 9970 nM (inactive) | Cc1nn(Cc2c(Cl)cccc2Cl)c(C)c1NC(=O)c1cc(C(C)C)on1
23 |  | > 30000 nM (inactive) | O=C1NC(Nc2nc3ccccc3s2)(C(F)(F)F)C(=O)N1C1CCCCC1 (stereo not given)
24 | 5.84 |  | CCn1c2ccccc2c2cc(Nc3cc(C)nc4ncnn34)ccc21
25 | 6.13 |  | CCN(c1ccccc1)S(=O)(=O)c1ccc(Oc2ccc(-n3ccnc3)cc2)nc1
26 | 5.78 |  | Cc1c(C(=O)OCCOC(C)C)[nH]c2c1C(=O)CC(c1ccco1)C2 (stereo not given)
27 | 5.59 |  | CCCCn1c(SCc2c(C)noc2C)nc2cc(S(N)(=O)=O)ccc21

Row | pIC50 | IC50 | SMILES
28 | 5.08 |  | C=C(C)COc1ccc(-c2[nH]ncc2-c2ccc(OC)c(OC)c2)c(O)c1
29 | 6.59 |  | COc1ccc(OCc2cccc(C(=O)O)c2)cc1
30 | 5.73 |  | Cc1nn(-c2ccccc2)c(Cl)c1C1C(C#N)=C(N)Oc2n[nH]c(C)c21 (stereo not given)
31 |  | > 9970 nM (inactive) | CCN(CC)c1ccc2cc(NC(=O)CCC(=O)O)c(=O)oc2c1
32 |  | > 30000 nM (inactive) | COc1cccc(C=Nc2cccnc2)c1O
33 |  | > 9970 nM (inactive) | CCN(CC)c1ccc2cc(-c3nc4ccccc4n3C)c(=O)oc2c1
34 | 5.98 |  | CCCN1C=CC(=C2C(=O)c3ccccc3C2=O)C=C1
35 |  | > 9970 nM (inactive) | CC1=CC(C)(C)Nc2ccc(OC(=O)c3cccnc3)cc21
36 | 5.65 |  | O=C(CN1C(=O)c2ccccc2S1(=O)=O)N1CCc2ccccc21
37 | 5.93 |  | COc1cc(NC(=O)c2cccc3c2C(=O)N(Cc2cccnc2)C3)cc(OC)c1OC
38 | 5.48 |  | COc1cccc(-c2nnc3n2N=C(C(C)(C)C)CS3)c1
39 | 6.60 |  | O=C(O)c1cccc(COc2ccc(CO)cc2Cl)c1
40 |  | 11600 nM (inactive) | CCOC(=O)c1ccccc1NC(=O)Cn1c(-c2nonc2N)nc2ccccc21
41 | 7.14 |  | CC1CCCN(c2ncnc3c2cnn3-c2ccc(Cl)cc2)C1 (stereo not given)
42 | 5.64 |  | O=C(Nc1nc2ccccc2[nH]1)c1ccccc1F
43 |  | > 30000 nM (inactive) | Cn1cc(/C=N/n2cnc3scc(-c4ccc(Cl)cc4)c3c2=O)c2ccccc21
44 |  | > 30000 nM (inactive) | O=C(CSc1nnnn1C1CC2CCC1C2)Nc1ccnc2ccccc12 (stereo not given)
45 | 5.39 |  | COCCn1c(C)cc(C(=O)CSc2nnc(C)s2)c1C
46 | 5.15 |  | Cc1cccc(N2CCN(C(=O)c3ccc(CS(=O)(=O)c4ccccc4C)o3)CC2C)c1 (stereo not given)
47 | 5.48 |  | Cc1ccc(-c2cc3c(nn2)-c2ccccc2C3=O)cc1
48 |  | > 30000 nM (inactive) | Cc1cc(C(=O)OCC(=O)NCc2ccco2)c(C)n1-c1ccccc1
49 | 6.50 |  | CCOC(=O)c1[nH]c2c(c1C)C(=O)CC(c1ccco1)C2 (stereo not given)
50 | 5.59 |  | CCOc1ccc(OCc2cccc(C(=O)N3CCOCC3)c2)cc1
51 | 5.94 |  | Cc1ccc2nc(-c3ccccc3)cn2c1
52 | 5.26 |  | Cc1ccc(C(=O)NCCn2cc(SCC(=O)Nc3cc(C)on3)c3ccccc32)cc1
53 | 5.85 |  | COc1ccc(C2=Nn3c(nnc3-c3ccccc3OC)SC2)cc1OC
54 | 5.63 |  | O=C(NCc1cccs1)c1nc2c(nnn2Cc2ccccc2Cl)c(=O)[nH]1

Row | pIC50 | IC50 | SMILES
55 | 5.74 |  | CCOc1ccc(-c2nc(CSCC(=O)NCc3ccco3)c(C)o2)cc1
56 | 5.91 |  | O=C(c1ccc(Cl)cc1)N1CCCCC(Sc2nnc(-c3ccc4c(c3)OCO4)o2)C1=O (stereo not given)
57 | 5.05 |  | NC(=O)c1sc2nccc(Nc3ccccc3)c2c1N
58 | 5.60 |  | Cc1nn(Cc2ccccc2Cl)c(C)c1C(=O)Nc1nnc(C2CC2)s1
59 |  | > 30000 nM (inactive) | Clc1ccc(COn2nnc3ccccc32)c(Cl)c1
60 | 6.14 |  | CC(=O)c1ccc(-c2nc3c4ccccc4ccn3c2C(C)=O)o1
61 | 5.65 |  | Cn1c(=O)n(C)c2cc(C(=O)Nc3ccc4c(c3)OCO4)ccc21
62 |  | 14600 nM (inactive) | COc1cccc(Oc2cnc(N)nc2-c2ccc(OC)cc2O)c1
63 | 5.81 |  | COc1cc(OC)cc(-c2cc3nc(C)c(CCC(=O)O)c(C)n3n2)c1
64 | 5.34 |  | CCOc1ccc(-c2cc(C(=O)O)c3ccccc3n2)c(OCC)c1
65 | 5.78 |  | CN(C)c1ccc2c(c1)OC(N)=C(C#N)C2c1cccc(F)c1 (stereo not given)
66 | 6.21 |  | O=C(O)c1cccc(COc2ccccc2Cl)c1
67 | 6.25 |  | Cc1csc(NC(=O)c2sc3nc(-c4cccs4)ccc3c2N)n1
68 |  | > 30000 nM (inactive) | CCOc1ccccc1NC(=O)c1cccc(NC(=O)c2ccco2)c1
69 | 5.58 |  | COc1ccc(-n2ncc3c(N4CCCCC4)ncnc32)cc1
70 | 5.69 |  | Cc1ccc(-c2nc(-c3ccccn3)no2)cc1
71 | 5.87 |  | CCOc1ccccc1NC(=O)Cn1nnc(C(=O)NCc2ccco2)c1N
72 |  | 17000 nM (inactive) | CNC(=O)CCc1nc(-c2ccc(C(C)(C)C)cc2)no1
73 |  | > 9970 nM (inactive) | CCOC(=O)c1[nH]c(C)c(C(=O)c2cc(F)ccc2F)c1C
74 | 5.77 |  | Oc1c(C(Nc2nc3ccccc3s2)c2ccco2)ccc2cccnc12 (stereo not given)
75 |  | > 30000 nM (inactive) | CCCOc1c(OC)cccc1C1CC(=O)Nc2cc(OC)c(OC)c(OC)c21 (stereo not given)
76 | 5.52 |  | O=C(/C=C\Nc1ccc2c(c1)OCO2)c1ccccn1
77 |  | > 30000 nM (inactive) | Cc1cc(-n2c(C)cc(C(=O)CSc3ncnc4ccccc34)c2C)no1
78 | 5.62 |  | O=C(NC1=NCCS1)C1COc2ccccc2O1 (stereo not given)
79 | 5.18 |  | Cc1cccc(-n2ncc3c(N(C)C4CCCCC4)ncnc32)c1
80 | 6.02 |  | Cc1ccc(-c2cnc(NC(=O)CCC(=O)N3CCCCC3)n2C)cc1
81 | 5.48 |  | O=c1c2ccccc2cnn1-c1nc2ccccc2s1

Row | pIC50 | IC50 | SMILES
82 |  | > 30000 nM (inactive) | COc1cc(C(=O)N2CCN(c3cc(Cl)ccc3Cl)CC2)cc(OC)c1OC
83 | 5.73 |  | COc1ccc2c(c1)sc1nc(-c3ccccc3)cn12
84 | 6.52 |  | CC(C)(C)c1ccc(-c2noc(CCC(N)=O)n2)cc1
85 |  | 20900 nM (inactive) | COc1ccc2cc(C(=O)NCc3ccco3)c(=Nc3ccc(C(=O)O)cc3)oc2c1
86 | 5.58 |  | O=C(Cc1cccs1)Nc1nc2c(s1)CCCC2
87 | 5.35 |  | CCCN(CCC)S(=O)(=O)c1ccc(C(=O)Nc2nnc(-c3cccc(OC)c3)o2)cc1
88 | 6.36 |  | Cc1oc2cc3c(C(=O)OCCN(C)C)c(C)oc3cc2c1C(=O)OCCN(C)C
89 |  | 10300 nM (inactive) | CSc1nnc2c3ccccc3n(CCc3ccccc3)c2n1
90 | 5.37 |  | O=C(Nc1ccc(N2CCOCC2)cc1)c1cnsn1
91 |  | > 9970 nM (inactive) | COc1cccc(NC(=O)CSc2nnc(-c3cc(C)n(-c4ccccc4)c3C)o2)c1
92 | 5.30 |  | N#CC1=C2SCC(O)(c3ccccc3)N2C(=O)CC1c1cccs1 (stereo not given)
93 |  | > 30000 nM (inactive) | Cc1cc(C)nc(N2CCC(C(=O)NCCc3ccc(F)cc3)CC2)n1
94 | 5.96 |  | c1ccc(-c2cccc(-c3ccccn3)n2)nc1
95 |  | > 9970 nM (inactive) | COc1ccccc1-c1nnc2sc(-c3ccc(N(C)C)cc3)nn12
96 |  | 13200 nM (inactive) | COC(=O)c1[nH]c2c(c1C)C(=O)CC(c1ccccc1)C2 (stereo not given)
97 |  | 10600 nM (inactive) | Cc1ccc(Nc2cc(C)nn2-c2nc(C)cc(=O)[nH]2)cc1
98 | 5.32 |  | CCN1C=CC(=C2C(=O)c3ccccc3C2=O)C=C1
99 | 5.08 |  | CCOC(=O)C(C(C)=O)c1c(Br)c(O)c(O)c2c(C(=O)c3ccc(C)cc3)coc12 (stereo not given)
100 | 5.18 |  | N#Cc1c(NC(=O)CSc2ncn[nH]2)sc2c1CCCCC2
101 |  | > 30000 nM (inactive) | c1ccc(-c2noc(-c3ccc4c(c3)OCO4)n2)nc1
102 | 6.12 |  | COc1cc(C2C(C#N)=C(N)Oc3cc(N(C)C)ccc32)cc2c1OCO2 (stereo not given)
103 | 5.47 |  | Cc1cccc(C)c1-n1nnnc1SCSc1nnnn1-c1c(C)cccc1C
104 |  | 25000 nM (inactive) | CCCOc1ccccc1C1CC(=O)Nc2cc3c(cc21)OCCO3 (stereo not given)
105 |  | > 30000 nM (inactive) | O=C(NC1c2ccccc2-c2ccccc21)N1CCCCC1
